Data on 5 molecules can be found in US8603483B2, “Anti-integrin immunoconjugates, methods and uses” (Janssen Biotech, Inc., priority 2004, dated 2013).

The subject of test [1] is A375.S2 human melanoma xenografts. Description: Advanced s.c. A375.S2 melanoma xenograft in athymic rats, second experiment (FIG. 7). It counts as in vivo, rat. To be noted: i.v., days 14, 16, 18, 23, 31. The protocol:
FIG. 7 is a graph showing the growth of human A375.S2 melanoma cells in athymic nude rats. On day 14, when the average tumor volumes reached 250 mm^3, the animals were randomly grouped and the first dose was administered. All animals were sacrificed on day 35. Tumor volumes were expressed as mean+/−SEM (n=9 or 10). The arrows indicate the days of intravenous drug administration.
(§1) The efficacy of CNTO 364 compared to CNTO95 against advanced s.c. A375.S2 human melanoma cells was investigated. CNTO 95-DM1 was prepared by ImmunoGen, Inc. Lot #1716-74B, stock concentration: 2.59 mg/ml. 5 mg/kg of CNTO 95-DM1 is equivalent to 74 μg/kg of DM1. CNTO 95 was from Centocor, Lot #5380-027, stock concentration=20 mg/ml. Human IgG-DM1: ChromPure human IgG was from Jackson ImmunoResearch Laboratories. Human IgG-DM1 was prepared by ImmunoGen, Lot #1762-50, stock concentration 2.8 mg/ml. 5 mg/kg of this conjugate is equivalent to 76 μg/kg of DM1. Maytansine: ImmunoGen, Lot #1710-121, stock concentration=16.38 μg/ml in PBS, pH 6.5. The stock solution of Maytansine was diluted with PBS to 15 and 7.5 μg/ml. PBS: ImmunoGen, pH 6.5. A375.S2 human melanoma cells were purchased from ATCC and subpassaged and stored in frozen aliquots at Centocor Cell Biology Services.
In a second experiment in rats, the average tumor volumes reached to 250 mm^3 on day 14. […]

The subject of test [2] is angiogenesis. In words: Rat Matrigel angiogenesis model. Type of test: in vivo. To be noted: stimulated by bFGF and M21 melanoma cells.
The subject of test [3] is A375.S2 human melanoma cells. Description: Advanced s.c. A375.S2 melanoma xenograft, first experiment (FIG. 6). Type of test: in vivo, athymic nude rats. The settings on record: 10 mg/kg i.v., tumors 250-300 mm^3 at start. As to the method:
as §1
Nine-week-old athymic nude rats were subcutaneously inoculated with A375.S2 human melanoma cells. On day 14, when average tumor volumes reached to 250-300 mm^3, animals were randomized to groups of 9/10 and treatment initiated. […] The arrows indicate intravenous drug administration.

Test [4] concerns A375.S2 human melanoma tumor. Description: A375.S2 human melanoma xenograft in nude mice, CNTO 95 from day 3. Type of test: in vivo, mouse. To be noted: 10 mg/kg i.p. three times per week. As to the method:
FIG. 4 is a graph showing the change volume over time of a human melanoma tumor in nude mice and the effect of administering CNTO 95. Mice were inoculated subcutaneously with A375.S2 cells (3×10^6), and dosing with CNTO 95 or control was initiated three days later. Mice were treated with CNTO 95 or vehicle three times per week at a dose of 10 mg/kg i.p. Each data point is the mean tumor volume from 10 tumor-bearing animals (±SEM).
At day 26, CNTO 95 inhibited tumor growth by approximately 80% compared to tumors from control-treated animals.
On the technique in general: In xenograft studies the graft and the host belong to different species.

In test [5] the test system is tumor and endothelial cells. In words: In vitro functional assays on tumor and endothelial cells (summary). Type of test: cell-based. The source says: In addition, CNTO 95 inhibited angiogenesis and tumor growth in vivo.
Test [6] concerns angiogenesis. In words: Primate angiogenesis model. Type of test: in vivo, cynomulgus monkeys. The settings on record: stimulated by bFGF.
In test [7] the test system is A375.S2 human melanoma tumor. Description: A375.S2 human melanoma xenograft in nude rats, weekly CNTO 95. It counts as in vivo, rat. To be noted: 10 mg/kg i.v. weekly, day 46, p=0.0007. The protocol: FIG. 5 is a graph showing the change volume over time of a human melanoma tumor in nude rats and the effect of administering CNTO 95. Rats were inoculated subcutaneously with A375.S2 cells (3×106), and therapy with CNTO 95 or control was initiated three days later. Rats were treated with CNTO 95 or vehicle once per week at a dose of 10 mg/kg i.v. Each data point is the mean tumor volume from 9 tumor-bearing animals (±SEM).
For rat studies, female nude rats, aged 6-7 weeks, were purchased from Harlan. Twenty rats were inoculated s.c. with A375.S2 cells (3×10^6) in the flank region (day 1). On day 4, rats were randomly assigned to 2 groups. One group was injected i.v. with CNTO 95 (10 mg/kg in PBS), while the other group received an isotype-matched control IgG (10 mg/kg). Dosing was continued weekly thereafter until day 46 (total of 6 doses). Tumors were measured by calipers twice a week and tumor volumes calculated by the formula (length×width2)/2. Body weights were also recorded weekly.
In the rat, CNTO 95 is capable of blocking both rat angiogenic integrins and human tumor cell-expressed integrins. Weekly treatment of tumor-bearing nude rats with CNTO 95 at 10 mg/kg reduced tumor growth compared to the isotype-matched human IgG control MAb (FIG. 5).

The test system of test [8] is A549 human non-small cell lung carcinoma cells. In words: ATPLite cytotoxicity, A549 cells, 96 hrs. Type of test: cell-based. The settings on record: A549, 96 hrs. The protocol: (§2) Human HT29 human colon carcinoma and human non-small cell lung carcinoma cells A549 (ATCC) were cultured in αMEM supplemented with 10% FBS at 37° C. in the presence of 5% CO2. Cells were seeded into white 96-well tissue culture plates (5000 cells/well) in culture medium and incubated for 16 hrs. Serial dilutions of immunoconjugates were added to each appropraite wells (0-20 μg/ml). Tissue culture plates were incubated at 37° C. for 96 hrs. ATPLIte assay was performed acording manufacturer's instruction. Data was analyzed with GraphPad Prism software using non-liner regression (Table 8) to determine the concentration at half maximal cell number as measured by luminosity.

For test [9], the system named is HT29 human colon tumor. Description: HT29 colon carcinoma xenograft in athymic rats, comparison of conjugate linkages. It counts as in vivo, rat. As to the method: An advanced tumor model using subcutaneously implanted HT29 human colon tumor-derived cells in immunocompromised rats was chosen to examine tolerability and potency of various linkages used to prepare immunoconjugates of CNTO 95.
CNTO 95-SPP-DM1 (CNTO 364), CNTO 95-SSNPB-DM4 (CNTO 365), CNTO 95-SSNPP-DM4 (CNTO 366), and the Mab F105 equivalents of these were prepared by ImmunoGen (Cambridge, Mass.). One hundred female athymic rats (4-6 weeks of age) were obtained from Harlan Laboratories.
Human HT29 (ATCC) were cultured in αMEM supplemented with 10% FBS at 37° C. in the presence of 5% CO2. Cells were prepared at a concentration of twenty-five million cells per ml in serum free αMEM for inoculation. Female athymic rats were inoculated with 5×10^6 HT29 cells subcutaneously (0.2 ml of 25×10^6 cells/ml) on the rear flank area (dorsal side, approximately 0.5 inches caudal to the last rib and 0.5 inches from the backbone). All rats were monitored twice per week for the appearance of tumor. The animals were stratified into 13 groups, 6 animals per group based on a mean tumor volume for each group of approximately 250 mm^3. Doses of immunoconjugates were calculated based on the contents of DM1 or DM4 in each conjugate. The L and H represent 175 and 350 μg/kg of DM1 or DM4, respectively. […] All measurements are expressed as the group mean+/−SEM (n=6).

The subject of test [10] is HT29 human colon carcinoma cells. Description: ATPLite cytotoxicity, HT29 cells, 96 hrs. It counts as cell-based. The settings on record: HT29, 96 hrs. As to the method: as §2
On the technique in general: Cellular ATP, detected with luciferase, serves as a proxy for viable cell number.

For test [11], the target named is αvβ5 (Homo sapiens, UniProt P06756, V783I). Description: 125-I saturation binding on αvβ5 coated plates. As to the method:
The binding affinity values for purified integrins were compared to binding to receptors expressed on various cell lines using 125-I CNTO 95. A375S2 and M21 cells express both αvβ3 and αvβ5, HT-29 cells express αvβ5. For comparison, other Mabs capable of binding integrins were used. The Kd was calculated from a saturation binding curve in each case using multiple replicates of multiple lots of antibody.

In test [12] the target is alphaVbeta3 (Homo sapiens, UniProt P05106+P06756, V783I). In words: ELISA binding of purified hybridoma antibodies to alphaVbeta3. The settings on record: ELISA on alphaVbeta3. The source says:
Human placenta (disrupted using a meat grinder) or M21 human melanoma cells expressing the αVβ3 integrin were extracted with OTG (Octylthioglucoside Pierce) in buffered saline as described (WO0212501). These preparations were emulsified with an equal volume of complete Freund's adjuvant and used to immunize 15 to 17 week old surgically castrated male mouse (GenPharm, Foster City, Calif.) on days 0 and 14 and in incomplete Freunds on days 28, 48, and 56. Three days later splenocytes were harvested from a mouse showing a titer of 1:1280 against alphaVbeta3 using a solid phase EIA format. Fusion was carried out at a 1:1 ratio of murine myeloma cells (SP2/0) to viable spleen cells. Hybridoma supernatants were screened using the EIA microplate assay or EIA capture assay and selected antibody producing lines expanded and retested for the desired properties.
ELISA analysis confirmed that purified antibody from two hybridomas, C371A (also called Mab CNTO 95) and C372A, bind alphaVbeta3 in a concentration-dependent manner. Fifty percent binding is achieved at 0.07 and 0.7 μg/mL for C372A and CNTO 95 respectively.
On the technique in general: In an ELISA, binding on a coated surface is turned into a signal by an enzyme label.

Sequence of alphaVbeta3 (P06756 31-889 V783I limits assumed): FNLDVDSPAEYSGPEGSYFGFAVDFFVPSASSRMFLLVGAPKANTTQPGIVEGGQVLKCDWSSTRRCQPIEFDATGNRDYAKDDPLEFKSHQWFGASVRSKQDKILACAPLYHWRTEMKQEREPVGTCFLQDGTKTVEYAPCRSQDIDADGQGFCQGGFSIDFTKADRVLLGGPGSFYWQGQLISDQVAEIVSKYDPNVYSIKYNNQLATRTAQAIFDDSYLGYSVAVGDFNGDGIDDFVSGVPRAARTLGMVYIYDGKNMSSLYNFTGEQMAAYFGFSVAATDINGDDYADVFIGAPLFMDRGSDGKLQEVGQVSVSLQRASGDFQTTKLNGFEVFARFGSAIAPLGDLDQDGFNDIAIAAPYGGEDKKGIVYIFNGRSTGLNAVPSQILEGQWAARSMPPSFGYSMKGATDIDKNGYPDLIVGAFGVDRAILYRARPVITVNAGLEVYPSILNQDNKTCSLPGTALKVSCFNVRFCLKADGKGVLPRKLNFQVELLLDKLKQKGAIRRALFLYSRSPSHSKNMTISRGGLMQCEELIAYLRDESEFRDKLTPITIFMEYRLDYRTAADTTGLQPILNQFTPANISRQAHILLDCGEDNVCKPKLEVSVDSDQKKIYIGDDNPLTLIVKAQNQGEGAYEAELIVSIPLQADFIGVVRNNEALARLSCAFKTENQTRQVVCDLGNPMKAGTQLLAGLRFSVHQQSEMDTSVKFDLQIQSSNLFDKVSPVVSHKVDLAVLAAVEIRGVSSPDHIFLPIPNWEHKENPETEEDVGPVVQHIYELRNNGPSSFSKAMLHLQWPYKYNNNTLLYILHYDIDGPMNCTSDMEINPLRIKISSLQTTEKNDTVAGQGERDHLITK
Sequence of alphaVbeta3 (P06756 891-1048 limits assumed): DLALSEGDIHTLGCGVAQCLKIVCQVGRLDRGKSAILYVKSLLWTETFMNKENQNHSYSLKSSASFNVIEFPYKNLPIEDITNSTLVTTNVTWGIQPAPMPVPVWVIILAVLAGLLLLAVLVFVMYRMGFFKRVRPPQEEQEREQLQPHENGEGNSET
Sequence of alphaVbeta3 (P05106 27-788): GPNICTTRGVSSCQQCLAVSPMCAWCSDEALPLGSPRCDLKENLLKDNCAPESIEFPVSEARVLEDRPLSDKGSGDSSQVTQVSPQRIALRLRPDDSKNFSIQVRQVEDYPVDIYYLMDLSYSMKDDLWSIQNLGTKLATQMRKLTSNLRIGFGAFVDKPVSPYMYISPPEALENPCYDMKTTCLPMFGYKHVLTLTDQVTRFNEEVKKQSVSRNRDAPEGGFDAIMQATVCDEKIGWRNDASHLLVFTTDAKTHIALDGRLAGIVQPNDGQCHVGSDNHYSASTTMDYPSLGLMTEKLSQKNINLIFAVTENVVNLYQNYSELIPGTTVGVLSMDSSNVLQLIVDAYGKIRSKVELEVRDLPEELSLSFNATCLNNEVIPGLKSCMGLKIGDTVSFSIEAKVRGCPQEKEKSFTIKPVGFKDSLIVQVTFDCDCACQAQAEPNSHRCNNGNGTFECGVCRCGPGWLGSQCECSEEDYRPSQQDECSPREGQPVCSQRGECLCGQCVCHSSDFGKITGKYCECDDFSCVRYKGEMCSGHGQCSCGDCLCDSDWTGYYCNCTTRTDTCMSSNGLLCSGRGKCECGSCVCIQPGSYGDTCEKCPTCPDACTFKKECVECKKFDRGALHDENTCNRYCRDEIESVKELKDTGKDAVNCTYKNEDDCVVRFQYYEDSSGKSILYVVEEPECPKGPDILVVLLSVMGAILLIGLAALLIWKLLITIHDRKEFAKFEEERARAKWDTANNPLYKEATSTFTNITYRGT
Sequence of αvβ5 (P06756 31-889 V783I limits assumed): as the sequence (P06756 31-889 V783I limits assumed) above
Sequence of αvβ5 (P06756 891-1048 limits assumed): as the sequence (P06756 891-1048 limits assumed) above
Sequence of αvβ5 (P18084 24-799 partner): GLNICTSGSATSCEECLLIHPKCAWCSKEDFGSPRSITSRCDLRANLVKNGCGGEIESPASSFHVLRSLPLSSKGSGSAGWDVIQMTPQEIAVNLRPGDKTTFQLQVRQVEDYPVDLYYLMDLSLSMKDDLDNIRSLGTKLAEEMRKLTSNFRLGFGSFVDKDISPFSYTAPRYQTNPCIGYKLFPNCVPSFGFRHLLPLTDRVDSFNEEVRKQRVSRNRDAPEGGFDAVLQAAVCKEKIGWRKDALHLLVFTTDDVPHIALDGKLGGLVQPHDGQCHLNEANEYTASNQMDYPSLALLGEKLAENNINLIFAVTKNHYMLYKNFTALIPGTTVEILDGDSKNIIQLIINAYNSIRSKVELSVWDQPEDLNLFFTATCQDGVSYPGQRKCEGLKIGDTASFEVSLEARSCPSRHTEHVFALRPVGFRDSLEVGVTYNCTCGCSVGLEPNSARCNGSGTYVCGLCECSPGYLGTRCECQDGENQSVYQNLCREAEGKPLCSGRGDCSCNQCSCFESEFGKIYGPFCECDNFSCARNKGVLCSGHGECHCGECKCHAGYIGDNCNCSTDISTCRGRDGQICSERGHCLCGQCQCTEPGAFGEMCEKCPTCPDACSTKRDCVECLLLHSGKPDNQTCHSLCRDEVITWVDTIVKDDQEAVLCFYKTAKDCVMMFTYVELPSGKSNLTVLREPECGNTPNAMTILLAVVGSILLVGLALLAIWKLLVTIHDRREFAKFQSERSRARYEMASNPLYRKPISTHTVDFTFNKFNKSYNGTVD

As to `COc1cc2cc(c1Cl)N(C)C(=O)C[C@H](OC(=O)[C@H](C)N(C)C(C)=O)[C@]1(C)O[C@H]1[C@H](C)[C@@H]1C[C@@](O)(NC(=O)O1)[C@H](OC)/C=C/C=C(\C)C2` [Maytansine, reference compound], the “effect on xenograft tumors (control compounds)” value in test [1] is recorded as “did not show any significant effects”.

Turning to “CNTO 95: fully human anti-alphaV integrin monoclonal antibody, human variable and IgG1 kappa constant regions”, the effect on angiogenesis result in test [2] and in test [6] was “blocked angiogenesis” in each case. The “effect on tumor growth / average tumor volume” value in test [3] is reported as “had no effect”. The “inhibition of tumor growth compared to control-treated animals” value in test [4] (day 26) is given as “approximately 80%”. Moreover, the “tumor growth vs control” value in test [4] (day 26, P=0.0005) was “significantly inhibited growth of tumors”. For the same molecule, the “effect on xenograft tumors (control compounds)” value in test [1] is given as “did not show any significant effects”. Also, in test [5], the “effect on adhesion, migration, proliferation and invasion” value is “inhibited adhesion, migration, proliferation and invasion”. Moreover, in [7], the “final tumor size vs isotype-matched control IgG” value is listed as “significant reduction in final tumor size”.

Regarding “CNTO 365: CNTO 95 conjugated to maytansinoid DM4 with SSNPB or SPDB linker; methyl groups 0:2”, the “EC50, concentration at half maximal cell number” value in [8] came to 0.3 µg/mL; in [10], 0.24 µg/mL. Also, the “complete regression, animals out of 6” value in [9] (high dose (350 microgm/kg of DM4), single injection) turned out to be 4. In test [9] (low dose (175 microgm/kg of DM4), Day 7 and Day 21), the “regressed preformed colon tumors, animals out of 6” value was found to be 2.

For the molecule “abciximab: other Mab capable of binding integrins, used for comparison”, the “binding on αvβ5 coated plates” value in test [11] is “no binding and no dose-response”.

For c7E3 IgG: anti-alphaIIbeta3 antibody, the “Fifty percent (maximal) binding concentration” value in test [12] amounted to 0.07 µg/mL.
